Results taken from PMC11636765, “Importance of Considering Fed-State Gastrointestinal Physiology in Predicting the Reabsorption of Enterohepatic Circulation of Drugs” (Pharmaceutical Research, 2024).
≈ marks a conversion by molar mass, not a printed value. Read-outs that look alike come from different tables or passages of the source.

Columns and labels:
[1] = Solubility test of drug substances in biorelevant media and free fraction calculation; format: physicochemical; details: for Free fraction: fraction of drug not entrapped in micelles in FeSSIF-V2, Eq. (8), from FaSSIF-V2/FeSSIF-V2 solubility; for Solubilization by bile micelles: in vitro solubility in biorelevant media
Description: (§1) Fasted State Simulated Gastric Fluid (FaSSGF) and Fasted State Simulated Intestinal Fluid version 2 (FaSSIF-V2) were used for dissolution tests and solubility tests. Fed State Simulated Intestinal Fluid version 2 (FeSSIF-V2) was used for solubility tests. These media contain sodium taurocholate as the bile acid. Their composition and preparation method have been previously reported and were prepared accordingly, except that FaSSGF was used without pepsin.
The excess amount of ezetimibe powder was added to 10 mL FaSSIF-V2 and FeSSIF-V2. Test tubes containing the drug substances in the biorelevant media were vigorously shaken at 37℃ ± 0.5℃ for 5 h. An approximately 5 mL sample was withdrawn using a plastic syringe, then filtered through a PVDF 0.45 µm filter. The filtrates (after discarding the first ca. 2 mL) were diluted with 50:50 v/v acetonitrile for analysis to prevent precipitation, except for that of ezetimibe tested in FeSSIF-V2. All solubility tests were conducted in triplicate.
(§2) TSKgel ODS-100Z 5 µm (4.6 mm × 15 cm, Tosoh Corporation, Tokyo, Japan) was used as analytical column for both drugs. Column temperature during analysis was set to 40℃. A mixture of perchlorate (Na) buffer pH 2.5 and acetonitrile (50:50, v/v) was used as mobile phase. […] Flow rate and injection volume were 1.2 mL/min and 10 μL, respectively.
Sodium taurocholate and lecithin concentration in FaSSIF-V2 are 3 mM and 0.2 mM, respectively, and those in FeSSIF-V2 are 10 mM and 2 mM, respectively. […] The formulation was considered able to exist in the small intestine for 4 h after administration. Initial intestinal fluid volume in both prandial states was set to 100 mL [31].

[2] = design: method as in earlier work; details: cited from earlier work
[3] = Estimation of effective permeability (Peff) in the human small intestine from Caco-2 Papp
Description: The Papp for each compound was cited from previous reports [39, 40] or calculated using an equation [41] based on the reported partition coefficient [25, 42].

[4] = cited from earlier work
[5] = cited from earlier work; remark: listed apart in the source
[6] = In vitro dissolution test of tablets in biorelevant media (USP apparatus II paddle); format: physicochemical; details: for Dissolution in FaSSIF-V2: tablet, 500 mL, paddle 50 rpm, up to 60 min
Description: as §1
For in vitro dissolution tests, a USP apparatus II paddle dissolution tester (NTR-6400AC, Toyama Sangyo Co., Ltd., Osaka, Japan) was used. The media volume of FaSSGF and FaSSIF-V2 was 300 mL and 500 mL, respectively, and temperature in the dissolution vessel was maintained at 37℃ ± 0.5℃. […] Paddle rotation speed during the dissolution test was maintained at 50 rpm for up to 60 min. The samples were filtered through PVDF 0.45 µm filters (Whatman, GD/X, 13 mm, Cytiva, Chicago, IL, USA) immediately after withdrawal, and filtrates were recovered after the first 2 mL was discarded. […] All dissolution tests were conducted in triplicate.
When the tablets […] during the infinity spin in the dissolution test, separate solubility measurements were performed, as described in the next paragraph.
as §2, with “respectively. […]” for “respectively.”

[7] = cited from earlier work; remark: listed apart in the source
[8] = FaSSIF-V2, drug substance powder, 37℃, shaken 5 h, pH 6.5, read-out: Solubility in FaSSIF-V2
[9] = FeSSIF-V2, 37 °C, fessif, thermodynamic from solid, drug substance powder, 37℃, shaken 5 h, pH 5.8, read-out: Solubility in FeSSIF-V2

solubility at 5 h [1, 8] [µg/mL]	solubility at 5 h [1, 9] [µg/mL]	Free fraction [1]	Papp [3] [×10⁻⁶ cm/s]	solubility at 120 min ([6]; FaSSIF-V2, for PK simulation, Zetia: infinity point of tablet dissolution test, Mobic: adopted from drug substance solubility test) [µg/mL]	Dissolution in FaSSIF-V2 [6]	solubility at 5 h ([1]; blank FaSSIF-V2 (without surfactant), drug substance, medium without surfactant, read-out: Solubility in blank FaSSIF-V2) [µg/mL]	solubility at 5 h ([1]; blank FeSSIF-V2 (without surfactant), drug substance, medium without surfactant, read-out: Solubility in blank FeSSIF-V2) [µg/mL]	Free fraction ([1]; listed as meloxicam)	SMILES	Solubilization by bile micelles [1]	Solubility in the aqueous phase [2]	Effect of concomitant food on extent of absorption [4]	Log P [5]	pKa [7]	Plasma concentration of glucuronide relative to parent drug in terms of AUC ([4]; humans, Zetia tablet)	Log P ([5]; calculated value based on apparent partition coefficient Log Papp)
3.79 ± 0.133 (≈ 9.26 µM)	22.3 ± 0.203 (≈ 54.5 µM)	0.169	121	4.93 (≈ 12 µM)	around 20%				O=C1[C@H](CC[C@H](O)c2ccc(F)cc2)[C@@H](c2ccc(O)cc2)N1c1ccc(F)cc1 [Ezetimibe, ezetimibe]	clearly shown to be solubilized by the mixed micelles	virtually insoluble	not affected	4.5	9.7		
									O=C(O)[C@H]1O[C@@H](Oc2ccc([C@@H]3[C@@H](CC[C@H](O)c4ccc(F)cc4)C(=O)N3c3ccc(F)cc3)cc2)[C@H](O)[C@@H](O)[C@@H]1O [glucuronide]						about seven-fold	
172 ± 12.3 (≈ 489 µM)	42.7 ± 1.53 (≈ 122 µM)	Regard as 1			about 80%	164 (≈ 467 µM)	32.5 (≈ 92.5 µM)	1	Cc1cnc(NC(=O)C2=C(O)c3ccccc3S(=O)(=O)N2C)s1 [Meloxicam, meloxicam]	insignificant						3.32
